Drawing on ChEMBL document CHEMBL1137967, “Lactams as EP4 prostanoid receptor subtype selective agonists. Part 1: 2-Pyrrolidinones-stereochemical and lower side-chain optimization” (Bioorg Med Chem Lett, 2004), this text covers Ki and EC50 for 25 compounds.

The Ki is a dissociation constant, usually derived from enzyme kinetics or from competition with a known ligand. Broadly, the EC50 is the midpoint of the concentration-response curve.

Assay [1] addresses Prostaglandin E2 receptor EP2 subtype (Homo sapiens, UniProt P43116). In words: Binding affinity was determined against prostanoid EP2 receptor.
For assay [2], the target named is T1, Prostaglandin E2 receptor EP3 subtype (Homo sapiens, UniProt P43115).
T1 sequence (P43115 whole entry): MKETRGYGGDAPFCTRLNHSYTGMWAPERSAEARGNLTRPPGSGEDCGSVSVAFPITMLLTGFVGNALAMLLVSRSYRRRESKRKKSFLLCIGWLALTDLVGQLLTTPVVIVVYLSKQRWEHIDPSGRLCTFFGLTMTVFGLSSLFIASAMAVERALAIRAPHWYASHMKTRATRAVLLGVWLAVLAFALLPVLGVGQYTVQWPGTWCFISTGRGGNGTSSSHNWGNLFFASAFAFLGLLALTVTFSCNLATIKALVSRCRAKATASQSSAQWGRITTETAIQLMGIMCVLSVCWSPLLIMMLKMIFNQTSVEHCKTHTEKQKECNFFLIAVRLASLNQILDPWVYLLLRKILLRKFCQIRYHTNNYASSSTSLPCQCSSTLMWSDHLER
In words: Binding affinity was determined against prostanoid EP3 receptor.

Assay [3] deals with T2, Prostaglandin E2 receptor EP1 subtype (Homo sapiens, UniProt P34995).
T2 sequence (P34995 whole entry): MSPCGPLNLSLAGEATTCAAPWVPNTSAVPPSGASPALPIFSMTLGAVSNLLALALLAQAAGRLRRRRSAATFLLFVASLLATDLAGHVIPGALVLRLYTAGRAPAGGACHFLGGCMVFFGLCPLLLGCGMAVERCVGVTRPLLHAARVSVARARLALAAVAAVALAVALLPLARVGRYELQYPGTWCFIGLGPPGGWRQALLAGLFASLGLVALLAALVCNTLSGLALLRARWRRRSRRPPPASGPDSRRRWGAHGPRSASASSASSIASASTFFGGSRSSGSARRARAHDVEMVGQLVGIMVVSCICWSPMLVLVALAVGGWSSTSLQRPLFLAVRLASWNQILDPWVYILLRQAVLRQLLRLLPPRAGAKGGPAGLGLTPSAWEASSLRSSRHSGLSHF
Nature of the assay: Binding affinity was determined against prostanoid EP1 receptor.

Assay [4] has as its target T3, Prostaglandin E2 receptor EP4 subtype (Homo sapiens, UniProt P35408). In words: Agonist activity against recombinant prostanoid EP4 receptor stably transfected in CHO cells. The class given is functional, cell-based.
Assay [5] addresses T3, Prostaglandin E2 receptor EP4 subtype. Nature of the assay: Binding affinity was determined against prostanoid EP4 receptor.

T3 sequence (P35408 whole entry): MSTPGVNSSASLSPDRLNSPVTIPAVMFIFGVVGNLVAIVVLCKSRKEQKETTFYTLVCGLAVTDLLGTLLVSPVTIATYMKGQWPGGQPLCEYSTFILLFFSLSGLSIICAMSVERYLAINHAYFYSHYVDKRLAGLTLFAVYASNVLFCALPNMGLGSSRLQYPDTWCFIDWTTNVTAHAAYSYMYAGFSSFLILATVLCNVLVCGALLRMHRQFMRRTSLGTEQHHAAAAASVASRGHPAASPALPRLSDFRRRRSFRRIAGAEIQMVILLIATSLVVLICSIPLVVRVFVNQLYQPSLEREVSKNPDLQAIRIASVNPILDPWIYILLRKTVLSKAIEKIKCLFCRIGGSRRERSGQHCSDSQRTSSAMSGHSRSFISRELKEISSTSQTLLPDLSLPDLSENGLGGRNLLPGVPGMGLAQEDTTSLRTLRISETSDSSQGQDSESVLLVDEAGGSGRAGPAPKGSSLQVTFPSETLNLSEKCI
Chain of Prostaglandin E2 receptor EP2 subtype (P43116 whole entry): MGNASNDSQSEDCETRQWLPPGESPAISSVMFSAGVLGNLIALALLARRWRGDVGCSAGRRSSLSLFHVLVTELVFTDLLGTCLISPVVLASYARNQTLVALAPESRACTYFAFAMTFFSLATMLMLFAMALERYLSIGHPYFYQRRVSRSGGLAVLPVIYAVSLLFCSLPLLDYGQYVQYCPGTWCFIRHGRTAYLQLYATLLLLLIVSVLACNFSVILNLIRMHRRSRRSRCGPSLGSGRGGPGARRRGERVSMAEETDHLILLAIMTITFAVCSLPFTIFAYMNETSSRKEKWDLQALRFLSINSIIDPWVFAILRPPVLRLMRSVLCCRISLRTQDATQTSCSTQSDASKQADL

With `O=C(O)CCCCCCN1C(=O)CC[C@@H]1/C=C/C(O)Cc1ccccc1` (some centres not stated), the Ki came out at 31 µM in assay [1] and 100 µM in assay [2].

`O=C(O)CCCCCCN1C(=O)CC[C@@H]1/C=C/C(O)C1(c2ccccc2)CC1` (some centres not stated): the Ki in assay [3] was 28 µM; in assay [1], 164 µM; in assay [2] it was 20 µM. Moreover, the EC50 in assay [4] came out at 0.18 µM.

As for `O=C(O)CCCCCCN1C(=O)CC[C@@H]1/C=C/C(O)c1cccc(Oc2ccccc2)c1` (some centres not stated), the Ki in assay [3] is 50 µM; in assay [5], 0.032 µM; in assay [2], greater than 100 µM. Further, the EC50 in assay [4] was 0.085 µM.

For `O=C(O)CCCCCCN1C(=O)CC[C@@H]1CC[C@@H](O)c1cccc(C(F)(F)F)c1`, the EC50 in assay [4] came out at 0.13 µM. Also, the Ki was 0.0074 µM in assay [5] and 12 µM in assay [2].

For `CCCCC[C@H](O)/C=C/[C@@H]1CCC(=O)N1CCCCCCC(=O)O`, the EC50 in assay [4] was greater than 100 µM.

`Cc1cc(O)ccc1-c1cccc([C@H](O)CC[C@H]2CCC(=O)N2CCCCCCC(=O)O)c1`: the EC50 in assay [4] came out at 0.015 µM. Further, the inhibition constant (Ki) in assay [5] was 0.0082 µM; in assay [1], 26 µM; in assay [2], greater than 100 µM.

`O=C(O)CCCCCCN1C(=O)CC[C@@H]1/C=C/C(O)c1ccccc1` (some centres not stated): the EC50 in assay [4] was greater than 10 µM. Further, the inhibitory constant (Ki) worked out at 2.3 µM in assay [5] and 41 µM in assay [1].

For the compound `O=C(O)CCCCCCN1C(=O)CC[C@@H]1/C=C/C(O)c1cccc(-c2ccccc2Cl)c1` (some centres not stated), the EC50 in assay [4] is 0.04 µM. Further, the Ki in assay [5] was 0.0062 µM; in assay [1], 42 µM; in assay [2], greater than 100 µM.

In the case of `Cc1cc(Cl)ccc1-c1cccc(C(O)/C=C/[C@H]2CCC(=O)N2CCCCCCC(=O)O)c1` (some centres not stated), the EC50 in assay [4] was 0.0008 µM. In addition, the Ki in assay [5] is 0.0031 µM; in assay [1] it was greater than 100 µM; in assay [2], 38 µM.

Regarding `O=C(O)CCCCCCN1C(=O)CC[C@@H]1/C=C/C(O)c1ccccc1-c1ccccc1` (some centres not stated), the EC50 in assay [4] worked out at 42 µM.

Regarding `O=C(O)CCCCCCN1C(=O)CC[C@@H]1/C=C/[C@@H](O)CC1CCC1`, the EC50 in assay [4] stood at 0.2 µM. For the same compound, the inhibition constant Ki in assay [5] was 0.0042 µM; in assay [1] it was greater than 100 µM; in assay [2] it was 56 µM.

For the compound `O=C(O)CCCCCCN1C(=O)CC[C@@H]1/C=C/C(O)c1cccc(C(F)(F)F)c1` (some centres not stated), the EC50 in assay [4] stood at 0.5 µM. Moreover, the Ki in assay [5] was found to be 0.14 µM; in assay [1] it was 68 µM; in assay [2] it was 131 µM.

In the case of `CCCCC[C@H](O)/C=C/[C@H]1CCC(=O)N1CCCCCCC(=O)O`, the Ki in assay [3] was greater than 100 µM; in assay [5] it was 0.0045 µM; in assay [1] it was 4.5 µM; in assay [2], 3 µM. In addition, in assay [4], the EC50 turned out to be 0.056 µM.

Turning to `O=C(O)CCCCCCN1C(=O)CC[C@@H]1/C=C/[C@@H](O)CC1CCCCC1`, the EC50 in assay [4] was 0.12 µM. Also, the Ki in assay [5] was determined as 0.0075 µM; in assay [1], 71 µM; in assay [2], 16 µM.

Turning to `CCCCC[C@@H](O)/C=C/[C@H]1CCC(=O)N1CCCCCCC(=O)O`, in assay [4], the EC50 was 6.1 µM.

As for `O=C(O)CCCCCCN1C(=O)CC[C@@H]1/C=C/C(O)Cc1cccc(C(F)(F)F)c1` (some centres not stated), the values for the Ki in assay [3] and in assay [2] were greater than 100 µM and 12 µM, respectively. Also, in assay [4], the EC50 amounted to 0.017 µM.

For `Cc1cc(O)ccc1-c1cccc(C(O)/C=C/[C@H]2CCC(=O)N2CCCCCCC(=O)O)c1` (some centres not stated), the EC50 in assay [4] came out at 0.013 µM. Besides, the Ki was 0.0049 µM in assay [5], greater than 100 µM in assay [1] and greater than 100 µM in assay [2].

As to `O=C(O)CCCCCCN1C(=O)CC[C@@H]1/C=C/[C@@H](O)Cc1cccc(C(F)(F)F)c1`, the inhibitory constant (Ki) was greater than 100 µM in assay [3], 0.0016 µM in assay [5], 29 µM in assay [1] and 13 µM in assay [2]. Further, in assay [4], the EC50 was determined as 0.012 µM.

Turning to `CCCCC[C@@H](O)/C=C/[C@@H]1CCC(=O)N1CCCCCCC(=O)O`, the EC50 in assay [4] is 200 µM.

Consider `O=C(O)CCCCCCN1C(=O)CC[C@@H]1/C=C/C(O)c1ccc(C(F)(F)F)o1` (some centres not stated), for which the concentration for a half-maximal effect (EC50) in assay [4] is 0.04 µM. The Ki in assay [5] was found to be 0.01 µM; in assay [1], 58 µM; in assay [2], 4.9 µM.

Take `O=C(O)CCCCCCN1C(=O)CC[C@@H]1CC[C@@H](O)Cc1cccc(C(F)(F)F)c1`: the EC50 in assay [4] stood at 0.46 µM. The Ki was 0.016 µM in assay [5], 22 µM in assay [1] and 38 µM in assay [2].

For the compound `O=C(O)CCCCCCN1C(=O)CC[C@@H]1/C=C/C(O)c1cccc(-c2ccc(Cl)cc2)c1` (some centres not stated), the EC50 in assay [4] turned out to be 0.05 µM. Also, the results for the Ki in assay [5], in assay [1] and in assay [2] were 0.39 µM, 4.2 µM and greater than 100 µM, respectively.

As to `O=C(O)CCCCCCN1C(=O)CC[C@@H]1CCC(=O)c1cccc(C(F)(F)F)c1`, the EC50 in assay [4] is greater than 10 µM.

With `O=C(O)CCCCCCN1C(=O)CC[C@@H]1/C=C/C(O)c1cccc(-c2ccccc2)c1` (some centres not stated), in assay [4], the EC50 came out at 0.36 µM. For the same compound, the values for the inhibition constant (Ki) in assay [5], in assay [1] and in assay [2] were 0.36 µM, 32 µM and greater than 100 µM, respectively.

Consider `O=C(O)CCCCCCN1C(=O)CC[C@@H]1/C=C/C(O)c1cccc(-c2cccc(Cl)c2)c1` (some centres not stated), for which, in assay [4], the EC50 stood at 0.17 µM. The Ki in assay [5] is 0.42 µM; in assay [1], 85 µM; in assay [2], greater than 100 µM.
